The values below come from patent US10183039B2, “Methods for the production of collagen IV” (Vanderbilt University, priority 2013, dated 2019).

Like-named read-outs stand apart in the source and are kept apart here. Some results are limits rather than exact numbers.

The subject of one data set is collagen IV. To be noted: in vivo.
For data set [1] the following is noted: cited from earlier work.
Data set [2] has as its system Drosophila melanogaster w1118. To be noted: in vivo. How it is done:
FIGS. 11A-C. […] WT Eggs from 3 day Br-depleted and Br-Added females were collected and transferred to new 35 mm culture dishes filled with 3 ml of vitamin and mineral spiked phytagel as the semi-solid support. 100 μL of Yeast paste±100 μM Br—(200 mg yeast/500 μL ddH2O) was added to the center of each dish. Larvae were transferred to fresh dishes and counted every 24-36 hours. WT flies were reared in the presence of 80 mM total Br-Free NaCl. For Br-Added conditions, both the phytagel and yeast paste were spiked with 100 μM NaBr to ensure constant and consistent exposure. Adults were fed identical food as part of the depletion regime. PxnF07229 homozygous larvae were separated from heterozygous larvae and collected 48 hours after hatching on a Br-Free vs Br-Added plates from parents fed a standard diet. After transfer to these fresh Br-experimental diet plates, they were transferred and counted similarly to the WT larvae under normal 20 mM NaCl conditions. The experimental cohorts [Br-Free (n=34), Br-Added (n=40), Br-Free PxnF07229 (n=14), and Br-Added PxnF07229 (n=19)] were followed until death or 2-days after eclosion of the last fly in the cohort. […] Scale bars in the insets represent 200 μm, and in the whole pictures 500 μm. The image of PxnF07229 larvae is from a Br-Added experimental diet. (FIG. 11C) Representative pictures of the corresponding gut dissections to FIG. 11B. Scale bars are 500 μm.
(FIG. 17A) Generational Br-depletion scheme (FIG. 17B). Generation 1 survival and time-to-development curves for w^1118 flies on the standard diet vs experimental diets. Embryos from mothers fed a standard diet were placed on the indicated diet, and progeny were scored every 24 hours. […] Data plotted as the group median±interquartile range. N=30 for each group. […] (FIG. 17C) Generation 2 developmental survival on experimental diets. n>40 for each cohort. Tested by Log-Rank test. (FIG. 17D) Percentage of eggs (mean+/−95% C.I.) completing embryogenesis from mothers reared on Br-free^DEP or Br-added^DEP diets for […]. In the Br-free^DEP experimental group, mothers were fed Br-free synthetic diet containing 80 mM total NaCl (Br-free^DEP) for 3 days prior to egg collection. The Br-added^DEP was treated in the same manner except that 100 μM NaBr was added to all food components of the Br-free^DEP synthetic diet. […] Analyzed by the Mann-Whitney U test. (FIG. 17E) Survival curve for w^1118 flies under Br-free^DEP or Br-added^DEP dietary conditions. […] Associated larval Br-content was measured by EINAA. Bonds/hexamer were calculated from the Western blot. […] BMs from 15 independent sections for each group were evaluated for thickness and the histograms plotted. […]

Experimental for PFHR-9 cells: (FIG. 10A) The murine PFHR-9 cell-culture model of basement membranes was cultured for 7 days in the presence of either commercial DMEM+5% FBS or adapted Br-Free DMEM +5% FBS dialyzed against Br-Free HBSS. Media was changed every 24 hours with the addition of 50 μg/ml ascorbic acid and NaBr added where noted. The cell deposited matrix was harvested, collagenase digested, and subjected to SDS-PAGE. NC1 crosslinking content is graphed as the mean±95% C.I. (n=3) with a representative gel depicted.
Bromine was systematically eliminated from DMEM by making the media from individual components without chloride counter ions, and using Br-Free chloride as the only halide source.
Experimental for collagen IV: Data plotted as the group median±interquartile range. N=30 for each group. […] (FIG. 17F) Western blot of isolated NC1 domain from larvae treated as in (E), probed with an anti-Drosophila NC1 polyclonal antibody (Extended Experimental Methods). Associated larval Br-content was measured by EINAA. Bonds/hexamer were calculated from the Western blot.
In Br-free^DEP conditions, the inventors assessed the impact of Br-deficiency on crosslink formation in vivo. The inventors used vkg^454-GFP flies in which the single collagen IV α2 gene locus contains a GFP insertion near the 7S domain. vkg^454-GFP flies were grown on Br-free^DEP, Br-added^DEP and standard diets and biochemically assayed sulfilamine-bond content via immunoblot.

For the compound `Br` [bromide], in the data set on collagen IV, the “sulfilimine-bond content in larvae” value is given as “rescued”. Moreover, in the data set on PFHR-9 cells, the “S═N crosslinking in the collagen IV matrix” value is on record as “rescued physiologic levels of crosslinking” and the “cell proliferation, viability, collagen IV synthesis” value is reported as “no observable difference in cell proliferation, viability, or collagen IV synthesis”. Besides, in data set [1] (in vivo), the “bromide level at which Bromism occurs” value is greater than 12 mmol/L and the “half-life in the human body” value is reported as 12 days. The “serum bromide level at which toxicity (bromism) occurs” value in data set [1] was roughly 12 mM. In data set [1] (listed as Br^−), the “serum bromide level at which toxicity (bromism) occurs” value was greater than 12 mM. For the same compound, in data set [2], the “Generation 2 larval survival” value is “rescued”, the “developmental progression of PxnF07229 larvae” value is given as “unable to promote developmental progression”, the “median time to eclosion” value came out at 10 days and the “median time to pupariation” value came out at 6 days.
